Measured values: patent EP4790066A1, “GLP-1R/GIPR/GCGR TRIPLE AGONIST ANALOGUE AND USE THEREOF” (Shenzhen Bay Laboratory, priority 2023, dated 2025)

Tests used:
Assay type in all cases: cell-based
GIPR [1] = target: T1, GIPR (Homo sapiens, UniProt P48546); assay: cAMP method (HTRF cAMP detection kit), HEK293/pGM-CREB-L-Luc/GIP pool; conditions: read-out: EC50 (pM) for each receptor GIPR
T1 construct: expressed in transfected cells
T1 sequence (P48546 22-466): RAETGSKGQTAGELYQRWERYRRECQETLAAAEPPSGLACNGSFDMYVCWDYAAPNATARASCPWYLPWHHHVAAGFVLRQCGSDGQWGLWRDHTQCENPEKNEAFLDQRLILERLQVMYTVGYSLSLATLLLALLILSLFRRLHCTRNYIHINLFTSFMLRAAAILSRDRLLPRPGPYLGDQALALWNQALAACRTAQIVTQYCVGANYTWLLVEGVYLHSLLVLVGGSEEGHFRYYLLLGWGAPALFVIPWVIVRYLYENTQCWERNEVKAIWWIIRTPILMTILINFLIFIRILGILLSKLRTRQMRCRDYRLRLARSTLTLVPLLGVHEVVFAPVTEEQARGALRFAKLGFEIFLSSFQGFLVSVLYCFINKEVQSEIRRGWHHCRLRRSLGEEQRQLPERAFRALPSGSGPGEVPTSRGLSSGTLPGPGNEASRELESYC
Procedure: (§1) 2. Insulinotropic analogues can bind to target receptors on the cell membrane, activate the receptors, and induce release. The activity of the test substance can be determined using the HTRF method with a cAMP detection kit. Therefore, the cAMP method can be used to detect the target peptide derivatives (or polypeptide derivatives, i.e., TG1-TG86) prepared in Example 1 and Example 2. […] The test cell line was selected, treated with cAMP-specific trypsin for digestion. 3 mL of serum-free DMEM culture medium was added, and the cells were pipetted, resuspended, and counted. 5 µL of IBMX (prepared with serum-free DMEM medium, 0.5 mM) and test cells (5 µL/7500 cells/well) were added in a 384-well plate sequentially. The plate was incubated at 37°C under 5% CO2 for 30 min, followed by the addition of cAMP-d2 (5 µL, 1x) and Anti-cAMP-Cryptate (5 µL, 1x). The mixture was kept at room temperature for 1 h, after which the HTRF value was measured using a chemiluminescent microplate reader, and the determination result was recorded. […] Table 4: EC50 values for target peptide derivatives

GLP-1R [2] = target: T2, GLP-1R (Homo sapiens, UniProt P43220); assay: cAMP method (HTRF cAMP detection kit), HEK293/pGM-CREB-L-Luc/GLP-1 pool; conditions: read-out: EC50 (pM) for each receptor GLP-1R
T2 construct: expressed in transfected cells
Procedure: as §1

GIPR [3] = target: T1, GIPR; assay: CreLuc method (CRE-luciferase reporter), HEK293/pGM-CREB-L-Luc/GIPR pool; conditions: 6 h incubation, read-out: EC50 (pM) for each receptor GIPR
Method in brief: (§2)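 Stable HEK293 pools co-expressing each receptor with a CRE-luciferase reporter were plated at 20,000 cells/well in freestyle medium and treated with compound dilution series for 6 h at 37 °C. Luminescence was read with ONE-GLO to derive EC50.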

GCGR [4] = target: T3, GCGR (Homo sapiens, UniProt P47871); assay: cAMP method (HTRF cAMP detection kit), HEK293/pGM-CREB-L-Luc/GCG pool; conditions: read-out: EC50 (pM) for each receptor GCGR
T3 construct: expressed in transfected cells
Procedure: as §1

GLP-1R [5] = target: T2, GLP-1R; assay: CreLuc method (CRE-luciferase reporter), HEK293/pGM-CREB-L-Luc/GLP-1R pool; conditions: 6 h incubation, read-out: EC50 (pM) for each receptor GLP-1R
Method in brief: as §2

GCGR [6] = target: T3, GCGR; assay: CreLuc method (CRE-luciferase reporter), 293HEK/pGM-CREB-L-Luc/GCGR pool; conditions: 6 h incubation, read-out: EC50 (pM) for each receptor GCGR
Method in brief: as §2

T3 sequence (P47871 26-477, species assumed): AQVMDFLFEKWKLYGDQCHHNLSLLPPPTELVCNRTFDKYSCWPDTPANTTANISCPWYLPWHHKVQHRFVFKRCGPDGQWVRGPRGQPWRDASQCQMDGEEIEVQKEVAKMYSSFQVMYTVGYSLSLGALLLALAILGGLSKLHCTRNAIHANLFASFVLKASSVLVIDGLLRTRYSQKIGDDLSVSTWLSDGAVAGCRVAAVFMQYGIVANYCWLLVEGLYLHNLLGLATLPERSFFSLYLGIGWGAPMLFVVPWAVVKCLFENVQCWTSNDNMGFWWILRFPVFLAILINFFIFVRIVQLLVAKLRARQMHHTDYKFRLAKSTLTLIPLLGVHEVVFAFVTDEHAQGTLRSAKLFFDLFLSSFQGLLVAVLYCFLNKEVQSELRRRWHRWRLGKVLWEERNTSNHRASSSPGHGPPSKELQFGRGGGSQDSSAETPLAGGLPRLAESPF
T2 sequence (P43220 24-463, species assumed): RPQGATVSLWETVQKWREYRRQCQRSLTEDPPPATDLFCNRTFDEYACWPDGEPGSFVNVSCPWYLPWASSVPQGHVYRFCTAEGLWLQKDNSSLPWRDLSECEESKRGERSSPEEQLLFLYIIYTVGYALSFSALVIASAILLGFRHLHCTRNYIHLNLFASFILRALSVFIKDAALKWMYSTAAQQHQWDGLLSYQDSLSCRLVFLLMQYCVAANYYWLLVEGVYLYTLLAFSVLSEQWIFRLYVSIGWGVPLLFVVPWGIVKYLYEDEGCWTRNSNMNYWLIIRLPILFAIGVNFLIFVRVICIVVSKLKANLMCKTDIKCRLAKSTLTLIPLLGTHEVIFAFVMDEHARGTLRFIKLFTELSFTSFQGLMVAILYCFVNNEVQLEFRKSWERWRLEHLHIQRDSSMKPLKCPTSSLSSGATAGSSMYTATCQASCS

| Compound | EC50 (GIPR [1]) | EC50 (GLP-1R [2]) | EC50 (GIPR [3]) | EC50 (GCGR [4]) | EC50 (GLP-1R [5]) | EC50 (GCGR [6]) |
| --- | --- | --- | --- | --- | --- | --- |
| CC(C)C[C@H](NC(=O)[C@H](CC(C)C)NC(=O)[C@H](Cc1c[nH]c2ccccc12)NC(=O)[C@@H]1CSCC(=O)NCCN(C(=O)CCC(=O)NCCOCCOCC(=O)NCCOCCOCC(=O)NCCCC[C@H](NC(=O)CCCCCCCCCCCCCCCCCCC(=O)O)C(=O)O)CCNC(=O)CSC[C@H](NC(=O)[C@H](CCCCN)NC(=O)[C@H](CC(=O)O)NC(=O)[C@H](CC(C)C)NC(=O)[C@H](Cc2ccc(O)cc2)NC(=O)[C@H](CCCCN)NC(=O)[C@H](CO)NC(=O)[C@H](Cc2ccc(O)cc2)NC(=O)[C@H](CC(=O)O)NC(=O)[C@H](CO)NC(=O)[C@@H](NC(=O)[C@H](Cc2ccccc2)NC(=O)[C@@H](NC(=O)CNC(=O)[C@H](Cc2c[nH]cn2)NC(=O)C(C)(C)NC(=O)[C@@H](N)Cc2c[nH]cn2)[C@@H](C)O)[C@@H](C)O)C(=O)N[C@@H](Cc2ccc(O)cc2)C(=O)N[C@@H](C)C(=O)N[C@@H](CCC(N)=O)C(=O)N[C@@H](CC(=O)O)C(=O)N[C@@H](Cc2ccccc2)C(=O)N[C@@H](C(C)C)C(=O)N1)C(=O)N[C@@H](CCC(=O)O)C(=O)NCC(=O)NCC(=O)N1CCC[C@H]1C(=O)N[C@@H](CO)C(=O)N[C@@H](CO)C(=O)NCC(=O)N[C@@H](C)C(=O)N1CCC[C@H]1C(=O)N1CCC[C@H]1C(=O)N1CCC[C@H]1C(=O)N[C@@H](CO)C(N)=O [TG10] | 9.7 pM | 2.5 pM | 368 pM | 8.5 pM | 359 pM | 149 pM |
| CC[C@H](C)[C@@H]1NC(=O)[C@H](Cc2ccccc2)NC(=O)[C@H](C)NC(=O)C(C)(C)NC(=O)[C@H](CCC(N)=O)NC(=O)[C@H](C)NC(=O)[C@@H](NC(=O)[C@H](CCCCN)NC(=O)[C@H](CC(=O)O)NC(=O)[C@H](CC(C)C)NC(=O)[C@H](CC(C)C)NC(=O)[C@@H](NC(=O)[C@H](CO)NC(=O)[C@H](Cc2ccc(O)cc2)NC(=O)[C@H](CC(=O)O)NC(=O)[C@H](CO)NC(=O)[C@@H](NC(=O)[C@H](Cc2ccccc2)NC(=O)[C@@H](NC(=O)CNC(=O)[C@H](CCC(N)=O)NC(=O)C(C)(C)NC(=O)[C@@H](N)Cc2ccc(O)cc2)[C@@H](C)O)[C@@H](C)O)[C@@H](C)CC)CSCC(=O)NCCN(C(=O)CCC(=O)NCCOCCOCC(=O)NCCOCCOCC(=O)NCCCC[C@H](NC(=O)CCCCCCCCCCCCCCCCCCC(=O)O)C(=O)O)CCNC(=O)CSC[C@@H](C(=O)N[C@@H](Cc2ccc(O)cc2)C(=O)N[C@@H](CC(C)C)C(=O)N[C@@H](CC(C)C)C(=O)N[C@@H](CCC(=O)O)C(=O)NCC(=O)NCC(=O)N2CCC[C@H]2C(=O)N[C@@H](CO)C(=O)N[C@@H](CO)C(=O)NCC(=O)N[C@@H](C)C(=O)N2CCC[C@H]2C(=O)N2CCC[C@H]2C(=O)N2CCC[C@H]2C(=O)N[C@@H](CO)C(N)=O)NC1=O [TG12] | 12.1 pM | 5.8 pM | 66.6 pM | 40.3 pM | 205 pM | 325 pM |
| CC[C@H](C)[C@@H]1NC(=O)[C@H](Cc2ccccc2)NC(=O)[C@@H](NC(=O)C(C)(C)NC(=O)[C@H](CCC(N)=O)NC(=O)[C@H](C)NC(=O)[C@H](CCCCNC(C)=O)NC(=O)[C@H](CCCCN)NC(=O)[C@H](CC(=O)O)NC(=O)[C@H](CC(C)C)NC(=O)[C@](C)(CC(C)C)NC(=O)[C@@H](NC(=O)[C@H](CO)NC(=O)[C@H](Cc2ccc(O)cc2)NC(=O)[C@H](CC(=O)O)NC(=O)[C@H](CO)NC(=O)[C@@H](NC(=O)[C@H](Cc2ccccc2)NC(=O)[C@@H](NC(=O)CNC(=O)[C@H](CCC(N)=O)NC(=O)C(C)(C)NC(=O)[C@@H](N)Cc2ccc(O)cc2)[C@@H](C)O)[C@@H](C)O)[C@@H](C)CC)CSCC(=O)NCCN(C(=O)CCC(=O)NCCOCCOCC(=O)NCCOCCOCC(=O)NCCCC[C@H](NC(=O)CCCCCCCCCCCCCCCCCCC(=O)O)C(=O)O)CCNC(=O)CSC[C@@H](C(=O)NCC(=O)NCC(=O)N2CCC[C@H]2C(=O)N[C@@H](CO)C(=O)N[C@@H](CO)C(=O)NCC(=O)N[C@@H](C)C(=O)N2CCC[C@H]2C(=O)N2CCC[C@H]2C(=O)N2CCC[C@H]2C(=O)N[C@@H](CO)C(N)=O)NC(=O)[C@H](CC(C)C)NC(=O)[C@H](CC(C)C)NC(=O)[C@H](Cc2ccc(O)cc2)NC(=O)[C@H](CCC(=O)O)NC1=O [TG15] | 3.3 pM | 1.9 pM | 85.6 pM | 40.3 pM | 116 pM | 329 pM |
| CC[C@H](C)[C@@H]1NC(=O)[C@H](Cc2ccccc2)NC(=O)[C@@H](NC(=O)C(C)(C)NC(=O)[C@H](CCC(N)=O)NC(=O)[C@H](C)NC(=O)[C@H](CCCCNC(C)=O)NC(=O)[C@H](CCCCN)NC(=O)[C@H](CC(=O)O)NC(=O)[C@H](CC(C)C)NC(=O)[C@](C)(CC(C)C)NC(=O)[C@@H](NC(=O)[C@H](CO)NC(=O)[C@H](Cc2ccc(O)cc2)NC(=O)[C@H](CC(=O)O)NC(=O)[C@H](CO)NC(=O)[C@@H](NC(=O)[C@H](Cc2ccccc2)NC(=O)[C@@H](NC(=O)CNC(=O)[C@H](CCC(N)=O)NC(=O)C(C)(C)NC(=O)[C@@H](N)Cc2c[nH]cn2)[C@@H](C)O)[C@@H](C)O)[C@@H](C)CC)CSCC(=O)NCCN(C(=O)CCC(=O)NCCOCCOCC(=O)NCCOCCOCC(=O)NCCCC[C@H](NC(=O)CCCCCCCCCCCCCCCCCCC(=O)O)C(=O)O)CCNC(=O)CSC[C@@H](C(=O)NCC(=O)NCC(=O)N2CCC[C@H]2C(=O)N[C@@H](CO)C(=O)N[C@@H](CO)C(=O)NCC(=O)N[C@@H](C)C(=O)N2CCC[C@H]2C(=O)N2CCC[C@H]2C(=O)N2CCC[C@H]2C(=O)N[C@@H](CO)C(N)=O)NC(=O)[C@H](CC(C)C)NC(=O)[C@H](CC(C)C)NC(=O)[C@H](Cc2ccc(O)cc2)NC(=O)[C@H](CCC(=O)O)NC1=O [TG18] | 1.7 pM | 1.4 pM | 25.9 pM | 94.4 pM | 66.9 pM | 802 pM |
| CC[C@H](C)[C@@H]1NC(=O)[C@H](Cc2ccccc2)NC(=O)[C@@H](NC(=O)C(C)(C)NC(=O)[C@H](CCC(N)=O)NC(=O)[C@H](C)NC(=O)[C@H](CCCCNC(C)=O)NC(=O)[C@H](CCCCN)NC(=O)[C@H](CC(=O)O)NC(=O)[C@H](CC(C)C)NC(=O)[C@](C)(CC(C)C)NC(=O)[C@@H](NC(=O)[C@H](CO)NC(=O)[C@H](Cc2ccc(O)cc2)NC(=O)[C@H](CC(=O)O)NC(=O)[C@H](CO)NC(=O)[C@@H](NC(=O)[C@H](Cc2ccccc2)NC(=O)[C@@H](NC(=O)CNC(=O)[C@H](CCC(N)=O)NC(=O)C(C)(C)NC(=O)[C@@H](N)Cc2ccc(O)cc2)[C@@H](C)O)[C@@H](C)O)[C@@H](C)CC)CSCC(=O)NCCN(C(=O)CCC(=O)NCCOCCOCC(=O)NCCOCCOCC(=O)NCCCC[C@H](NC(=O)CCCCCCCCCCCCCCCCCCC(=O)O)C(=O)O)CCNC(=O)CSC[C@@H](C(=O)NCC(=O)NCC(=O)N2CCC[C@H]2C(=O)N[C@@H](CO)C(=O)N[C@@H](CO)C(=O)NCC(=O)N[C@@H](C)C(=O)N2CCC[C@H]2C(=O)N2CCC[C@H]2C(=O)N2CCC[C@H]2C(=O)N[C@@H](CO)C(N)=O)NC(=O)[C@H](CC(C)C)NC(=O)[C@H](CC(C)C)NC(=O)[C@H](Cc2c[nH]c3ccccc23)NC(=O)[C@H](CCC(=O)O)NC1=O [TG28] | – | 2.2 pM | 30 pM | 83.7 pM | 60.2 pM | 482 pM |
